# Target: USP7 (Homo sapiens, UniProt Q93009)
# Assay: USP7 inhibitory potency (IC50)
# Type: biochemical
# Description: Activity for compounds described herein is provided in Table 2, wherein potency levels are provided as follows: (Potency: USP7 IC50: A<0.01 μM; B=0.01-0.1 μM; C=>0.1 μM.
# Chain of USP7 (Q93009 whole entry): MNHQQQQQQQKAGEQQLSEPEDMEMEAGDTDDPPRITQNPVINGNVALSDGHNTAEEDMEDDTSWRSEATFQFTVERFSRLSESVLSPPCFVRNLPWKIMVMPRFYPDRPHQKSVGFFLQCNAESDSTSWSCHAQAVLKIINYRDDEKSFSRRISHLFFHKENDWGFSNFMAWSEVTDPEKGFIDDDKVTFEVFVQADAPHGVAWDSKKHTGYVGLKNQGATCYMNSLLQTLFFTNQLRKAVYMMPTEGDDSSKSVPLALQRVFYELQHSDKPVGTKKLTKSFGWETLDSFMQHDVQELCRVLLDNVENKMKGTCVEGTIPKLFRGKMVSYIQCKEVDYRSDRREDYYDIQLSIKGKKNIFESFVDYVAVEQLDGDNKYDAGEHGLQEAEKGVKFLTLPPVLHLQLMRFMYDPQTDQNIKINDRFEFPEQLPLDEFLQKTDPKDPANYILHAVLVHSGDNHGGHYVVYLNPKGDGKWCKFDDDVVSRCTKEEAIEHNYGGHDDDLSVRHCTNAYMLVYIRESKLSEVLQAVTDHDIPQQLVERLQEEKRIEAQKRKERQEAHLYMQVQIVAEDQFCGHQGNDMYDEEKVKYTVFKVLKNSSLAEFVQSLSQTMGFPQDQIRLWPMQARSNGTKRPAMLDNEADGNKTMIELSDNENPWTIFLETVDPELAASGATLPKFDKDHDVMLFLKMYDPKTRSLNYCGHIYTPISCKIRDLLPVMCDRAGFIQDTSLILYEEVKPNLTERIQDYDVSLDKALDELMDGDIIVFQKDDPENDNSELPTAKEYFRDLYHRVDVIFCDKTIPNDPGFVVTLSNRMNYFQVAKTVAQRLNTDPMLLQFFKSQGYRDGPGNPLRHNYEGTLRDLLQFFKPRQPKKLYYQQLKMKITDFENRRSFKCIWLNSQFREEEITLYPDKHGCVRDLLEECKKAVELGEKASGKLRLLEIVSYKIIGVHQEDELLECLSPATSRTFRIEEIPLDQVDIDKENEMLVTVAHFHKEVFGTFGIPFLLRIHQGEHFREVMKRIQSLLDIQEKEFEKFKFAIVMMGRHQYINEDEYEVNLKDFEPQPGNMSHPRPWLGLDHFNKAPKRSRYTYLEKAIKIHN
row,IC50 [nM],SMILES
1,< 10,"Cc1cc(Cl)cc(-c2ccnc3cc(CN4C(=O)CCC4=O)sc23)c1CN1CC2CCC1CN2 (stereo not drawn) [Example 9, 1-((7-(2-((2,5-diazabicyclo[2.2.2]octan-2-yl)methyl)-5-chloro-3-methylphenyl)thieno[3,2-b]pyridin-2-yl)methyl)pyrrolidine-2,5-dione]"
2,< 10,"Cc1cc(Cl)cc(-c2ncnc3cc(CN4C(=O)c5ccccc5C4=O)sc23)c1CC1CNCCO1 (stereo not drawn) [Example 179, 2-((4-(5-chloro-3-methyl-2-(morpholin-2-ylmethyl)phenyl)thieno[3,2-d]pyrimidin-6-yl)methyl)isoindoline-1,3-dione]"
3,< 10,"Cc1cc(Cl)cc(-c2ccnc3cc(CN4C(=O)CCCC4=O)sc23)c1CC1CNCCO1 (stereo not drawn) [Example 107, 1-((7-(5-chloro-3-methyl-2-(morpholin-2-ylmethyl)phenyl)thieno[3,2-b]pyridin-2-yl)methyl)piperidine-2,6-dione]"
4,10 to 100,"Cc1cc(Cl)cc(-c2ccnc3cc(CN4C(=O)C5C(C4=O)C5(C)C)sc23)c1CN1CCNCC1 (stereo not drawn) [Example 6, 3-((7-(5-chloro-3-methyl-2-(piperazin-1-ylmethyl)phenyl)thieno[3,2-b]pyridin-2-yl)methyl)-6,6-dimethyl-3-azabicyclo[3.1.0]hexane-2,4-dione]"
5,< 10,"Cc1cc(Cl)cc(-c2ncnc3cc(CN4C(=O)C5C(C4=O)C5(C)C)sc23)c1C[C@@H]1CNCCO1 (stereo partly drawn) [Example 196, 3-((4-(5-chloro-3-methyl-2-(((R)-morpholin-2-yl)methyl)phenyl)thieno[3,2-d]pyrimidin-6-yl)methyl)-6,6-dimethyl-3-azabicyclo[3.1.0]hexane-2,4-dione]"
6,< 10,"Cc1cc(Cl)cc(-c2ncnc3cc(CN4C(=O)C5CC5C4=O)sc23)c1C[C@@H]1CN(C(=O)C(F)(F)F)CCO1 (stereo partly drawn) [Example 199, 3-((4-(5-chloro-3-methyl-2-(((R)-4-(2,2,2-trifluoroacetyl)morpholin-2-yl)methyl)phenyl)thieno[3,2-d]pyrimidin-6-yl)methyl)-3-azabicyclo[3.1.0]hexane-2,4-dione]"
7,< 10,"Cc1cc(Cl)cc(-c2ncnc3cc(CN4C(=O)C5CCCCN5C4=O)sc23)c1CC1CNCCO1 (stereo not drawn) [Example 184, 2-((4-(5-chloro-3-methyl-2-(morpholin-2-ylmethyl)phenyl)thieno[3,2-d]pyrimidin-6-yl)methyl)tetrahydroimidazo[1,5-a]pyridine-1,3(2H,5H)-dione]"
8,< 10,"Cc1cc(Cl)cc(-c2ccnc3cc(CN4C(=O)C5CC5C4=O)sc23)c1CC1CNCCCO1 (stereo not drawn) [Example 118, 3-((7-(2-((1,4-oxazepan-2-yl)methyl)-5-chloro-3-methylphenyl)thieno[3,2-b]pyridin-2-yl)methyl)-3-azabicyclo[3.1.0]hexane-2,4-dione]"
9,< 10,"Cc1cc(Cl)cc(-c2ccnc3cc(CN4C(=O)C5CC5C4=O)sc23)c1C[C@@H]1CNCCO1 (stereo partly drawn) [Example 123, 3-((7-(5-chloro-3-methyl-2-(((R)-morpholin-2-yl)methyl)phenyl)thieno[3,2-b]pyridin-2-yl)methyl)-3-azabicyclo[3.1.0]hexane-2,4-dione]"
10,< 10,"C[C@H]1CNC[C@H](C)N1Cc1c(Cl)cc(Cl)cc1-c1ccnc2cc(CN3C(=O)CCN(C)C3=O)sc12 [Example 49, 3-((7-(3,5-dichloro-2-(((2S,6S)-2,6-dimethylpiperazin-1-yl)methyl)phenyl)thieno[3,2-b]pyridin-2-yl)methyl)-1-methyldihydropyrimidine-2,4(1H,3H)-dione]"
11,10 to 100,"Cc1cc(Cl)cc(-c2ncnc3cc(CN4CCCC4=O)sc23)c1C[C@@H]1CNCC(C)(C)O1 [Example 235, (R)-1-((4-(5-chloro-2-((6,6-dimethylmorpholin-2-yl)methyl)-3-methylphenyl)thieno[3,2-d]pyrimidin-6-yl)methyl)pyrrolidin-2-one]"
12,< 10,"Cc1cc(Cl)cc(-c2ncnc3cc(CN4C(=O)CCNC4=O)sc23)c1C[C@@H]1CNCC(C)(C)O1 [Example 270, (R)-3-((4-(5-chloro-2-((6,6-dimethylmorpholin-2-yl)methyl)-3-methylphenyl)thieno[3,2-d]pyrimidin-6-yl)methyl)dihydropyrimidine-2,4(1H,3H)-dione]"
13,< 10,"COC(=O)[C@H]1CCC(=O)N1Cc1cc2ncnc(-c3cc(Cl)cc(C)c3C[C@@H]3CNCC(C)(C)O3)c2s1 [Example 224, methyl (R)-1-((4-(5-chloro-2-(((R)-6,6-dimethylmorpholin-2-yl)methyl)-3-methylphenyl)thieno[3,2-d]pyrimidin-6-yl)methyl)-5-oxopyrrolidine-2-carboxylate]"
14,< 10,"Cc1cc(Cl)cc(-c2ncnc3cc(Cn4c(=O)ccn(C)c4=O)sc23)c1CC1CNCC(C)(C)O1 (stereo not drawn) [Example 192, 3-((4-(5-chloro-2-((6,6-dimethylmorpholin-2-yl)methyl)-3-methylphenyl)thieno[3,2-d]pyrimidin-6-yl)methyl)-1-methylpyrimidine-2,4(1H,3H)-dione]"
15,< 10,"Cc1cc(Cl)cc(-c2ncnc3cc(CN4C(=O)CN(CC(F)(F)F)C4=O)sc23)c1CN1[C@@H](C)CNC[C@@H]1C [Example 272, 3-((4-(5-chloro-2-(((2S,6S)-2,6-dimethylpiperazin-1-yl)methyl)-3-methylphenyl)thieno[3,2-d]pyrimidin-6-yl)methyl)-1-(2,2,2-trifluoroethyl)imidazolidine-2,4-dione]"
16,10 to 100,"Cc1cc(Cl)cc(-c2ccnc3cc(Cn4c(=O)ccn(CC(F)(F)F)c4=O)sc23)c1CN1CCNCCC1=O [Example 255, 3-((7-(5-chloro-3-methyl-2-((7-oxo-1,4-diazepan-1-yl)methyl)phenyl)thieno[3,2-b]pyridin-2-yl)methyl)-1-(2,2,2-trifluoroethyl)pyrimidine-2,4(1H,3H)-dione]"
17,< 10,"Cc1cc(Cl)cc(-c2ncnc3cc(CN4C(=O)CN(C)C4=O)sc23)c1CN1[C@@H](C)CNC[C@@H]1C [Example 87, 3-((4-(5-chloro-2-(((2S,6S)-2,6-dimethylpiperazin-1-yl)methyl)-3-methylphenyl)thieno[3,2-d]pyrimidin-6-yl)methyl)-1-methylimidazolidine-2,4-dione]"
18,< 10,"Cc1cc(Cl)cc(-c2ccnc3cc(CN4C(=O)C5CC5C4=O)sc23)c1CN1CCCNCC1C (stereo not drawn) [Example 38, 3-((7-(5-chloro-3-methyl-2-((2-methyl-1,4-diazepan-1-yl)methyl)phenyl)thieno[3,2-b]pyridin-2-yl)methyl)-3-azabicyclo[3.1.0]hexane-2,4-dione]"
19,10 to 100,"CCC1CCC(=O)N1Cc1cc2ncnc(-c3cc(Cl)cc(C)c3C[C@@H]3CNCC(C)(C)O3)c2s1 (stereo partly drawn) [Example 232, 1-((4-(5-chloro-2-(((R)-6,6-dimethylmorpholin-2-yl)methyl)-3-methylphenyl)thieno[3,2-d]pyrimidin-6-yl)methyl)-5-ethylpyrrolidin-2-one]"
20,< 10,"Cc1cc(Cl)cc(-c2ncnc3cc(Cn4c(=O)ccn(C)c4=O)sc23)c1C[C@@H]1CNCC(C)(C)O1 [Example 218, (R)-3-((4-(5-chloro-2-((6,6-dimethylmorpholin-2-yl)methyl)-3-methylphenyl)thieno[3,2-d]pyrimidin-6-yl)methyl)-1-methylpyrimidine-2,4(1H,3H)-dione]"
21,< 10,"Cc1cc(Cl)cc(-c2ncnc3cc(CN4C(=O)COCC4=O)sc23)c1CC1CNCCO1 (stereo not drawn) [Example 169, 4-((4-(5-chloro-3-methyl-2-(morpholin-2-ylmethyl)phenyl)thieno[3,2-d]pyrimidin-6-yl)methyl)morpholine-3,5-dione]"

# From patent publication US11084829B2, “Ubiquitin-specific-processing protease 7 (USP7) modulators and uses thereof” (RAPT THERAPEUTICS, INC., priority 2018, dated 2021)
